Measurements from ChEMBL document CHEMBL5465560, “Selectivity Literature for EUbOPEN Chemogenomic Library” (2024).

Assays:
[1] = molecular target: Serine/threonine-protein kinase OSR1 (Homo sapiens) (UniProt O95747); experiment: Selectivity interaction (LanthaScreen Eu Kinase Binding Assay) EUB0001632a OXSR1; conditions: at 10 µM
[2] = molecular target: Casein kinase I isoform gamma-1 (Homo sapiens) (UniProt Q9HCP0); experiment: Selectivity interaction (Kinase panel (Z-LYTE Assay)) EUB0001632a CSNK1G1; conditions: at 10 µM
[3] = molecular target: Bromodomain adjacent to zinc finger domain protein 2B (Homo sapiens) (UniProt Q9UIF8); experiment: Selectivity interaction (Human bromodomain panel (DSF assay)) EUB0000233b BAZ2B
[4] = molecular target: BDNF/NT-3 growth factors receptor (Homo sapiens) (UniProt Q16620); experiment: Selectivity interaction (SelectScreen profiling (Invitrogen)) EUB0000607a NTRK2; conditions: at 2 µM
[5] = molecular target: Tyrosine-protein kinase Lyn (Homo sapiens, UniProt P07948); conditions: at 10 µM
Focal adhesion kinase 1 = Focal adhesion kinase 1 (Homo sapiens, UniProt Q05397); experiment: Selectivity interaction (ActivX KiNativ screen (kinase selectivity in THP-1 cell lysates)) EUB0000639a PTK2; assay type: subcellular; conditions: lysate
[6] = molecular target: 5'-AMP-activated protein kinase catalytic subunit alpha-1 (Homo sapiens, UniProt Q13131); experiment: Selectivity interaction (Kinase panel (Invitrogen)) EUB0000639a PRKAA1; conditions: at 200 nM
[7] = molecular target: Cyclin-dependent kinase 18 (Homo sapiens) (UniProt Q07002); experiment: Selectivity interaction (ActivX KiNativ screen (kinase selectivity in THP-1 cell lysates)) EUB0000639a CDK18; assay type: subcellular; conditions: lysate, at 0.01 µM
[8] = molecular target: Calcium/calmodulin-dependent protein kinase type II subunit beta (Homo sapiens) (UniProt Q13554); experiment: Selectivity interaction (KinomeScan (DiscoverX)) EUB0000595a CAMK2B; conditions: at 10 µM
[9] = molecular target: Serine/threonine-protein kinase 32A (Homo sapiens) (UniProt Q8WU08); experiment: Selectivity interaction (KinomeScan (DiscoverX)) EUB0001049a STK32A; conditions: at 1 µM
[10] = molecular target: Cyclin-dependent kinase 5 (Homo sapiens, UniProt Q00535); experiment: Selectivity interaction (Kinase screening (Nanosyn)) EUB0000604a CDK5
[11] = molecular target: Homeodomain-interacting protein kinase 1 (Homo sapiens, UniProt Q86Z02); experiment: Selectivity interaction (KinomeScan (DiscoverX)) EUB0000045b HIPK1
[12] = molecular target: Homeodomain-interacting protein kinase 3 (Homo sapiens, UniProt Q9H422); experiment: Selectivity interaction (KinomeScan (DiscoverX)) EUB0000045b HIPK3
[13] = molecular target: Myosin light chain kinase 2, skeletal/cardiac muscle (Homo sapiens) (UniProt Q9H1R3); experiment: Selectivity interaction (KinomeScan (DiscoverX)) EUB0000045b MYLK2
[14] = molecular target: Tyrosine-protein kinase BTK (Homo sapiens, UniProt Q06187); experiment: Selectivity interaction (KinomeScan (DiscoverX)) EUB0001079a BTK; conditions: at 1 µM
[15] = molecular target: Phosphatidylinositol 4-kinase beta (Homo sapiens, UniProt Q9UBF8); experiment: Selectivity interaction (KinomeScan (DiscoverX)) EUB0001079a PI4KB; conditions: at 1 µM
[16] = molecular target: RAC-alpha serine/threonine-protein kinase (Homo sapiens, UniProt P31749); experiment: Selectivity interaction (KinomeScan (DiscoverX)) EUB0001079a AKT1; conditions: at 1 µM
[17] = molecular target: Serine/threonine-protein kinase Nek4 (Homo sapiens) (UniProt P51957); experiment: Selectivity interaction (Kinase panel (KiNativ target engagement assay in Jurkat cells)) EUB0001635a NEK4; assay type: cell-based; conditions: at 1 µM
[18] = molecular target: eIF-2-alpha kinase GCN2 (Homo sapiens) (UniProt Q9P2K8); experiment: Selectivity interaction (Kinase panel (KiNativ target engagement assay in Jurkat cells)) EUB0001635a EIF2AK4; assay type: cell-based; conditions: at 1 µM
[19] = molecular target: T1, Inhibitor of nuclear factor kappa-B kinase subunit beta (Homo sapiens) (UniProt O14920); experiment: Selectivity interaction (KinomeScan (DiscoverX)) EUB0000229b IKBKB; conditions: at 10 µM
T1 sequence (whole entry): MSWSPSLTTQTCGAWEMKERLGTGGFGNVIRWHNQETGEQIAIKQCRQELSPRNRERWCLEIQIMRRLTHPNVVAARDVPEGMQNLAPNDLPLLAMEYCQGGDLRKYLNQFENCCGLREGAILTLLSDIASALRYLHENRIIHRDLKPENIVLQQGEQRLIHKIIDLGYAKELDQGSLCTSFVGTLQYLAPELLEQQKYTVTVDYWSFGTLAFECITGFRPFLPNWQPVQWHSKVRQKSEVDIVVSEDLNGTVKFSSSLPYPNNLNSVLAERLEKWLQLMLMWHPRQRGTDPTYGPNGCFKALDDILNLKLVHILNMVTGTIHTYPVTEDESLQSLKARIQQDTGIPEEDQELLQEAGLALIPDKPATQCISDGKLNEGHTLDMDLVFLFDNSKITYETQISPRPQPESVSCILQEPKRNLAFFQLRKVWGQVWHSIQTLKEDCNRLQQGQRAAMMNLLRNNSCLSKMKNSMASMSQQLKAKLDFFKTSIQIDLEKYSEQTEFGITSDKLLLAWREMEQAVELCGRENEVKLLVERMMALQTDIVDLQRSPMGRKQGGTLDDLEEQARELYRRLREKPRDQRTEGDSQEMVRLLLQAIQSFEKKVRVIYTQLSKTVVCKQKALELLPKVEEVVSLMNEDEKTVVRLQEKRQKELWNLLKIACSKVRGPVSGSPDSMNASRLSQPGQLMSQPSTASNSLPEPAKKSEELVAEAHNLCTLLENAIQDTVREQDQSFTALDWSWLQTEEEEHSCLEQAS

[20] = molecular target: Phosphatidylinositol 4,5-bisphosphate 3-kinase catalytic subunit beta isoform (Homo sapiens) (UniProt P42338); experiment: Selectivity interaction (ActivX KiNativ screen (ex vivo kinase selectivity in human PBMCs)) EUB0001619a PIK3CB; assay type: cell-based; conditions: PBMC, at 1 µM

Sequence of Focal adhesion kinase 1 (Q05397 2-1052 limits assumed): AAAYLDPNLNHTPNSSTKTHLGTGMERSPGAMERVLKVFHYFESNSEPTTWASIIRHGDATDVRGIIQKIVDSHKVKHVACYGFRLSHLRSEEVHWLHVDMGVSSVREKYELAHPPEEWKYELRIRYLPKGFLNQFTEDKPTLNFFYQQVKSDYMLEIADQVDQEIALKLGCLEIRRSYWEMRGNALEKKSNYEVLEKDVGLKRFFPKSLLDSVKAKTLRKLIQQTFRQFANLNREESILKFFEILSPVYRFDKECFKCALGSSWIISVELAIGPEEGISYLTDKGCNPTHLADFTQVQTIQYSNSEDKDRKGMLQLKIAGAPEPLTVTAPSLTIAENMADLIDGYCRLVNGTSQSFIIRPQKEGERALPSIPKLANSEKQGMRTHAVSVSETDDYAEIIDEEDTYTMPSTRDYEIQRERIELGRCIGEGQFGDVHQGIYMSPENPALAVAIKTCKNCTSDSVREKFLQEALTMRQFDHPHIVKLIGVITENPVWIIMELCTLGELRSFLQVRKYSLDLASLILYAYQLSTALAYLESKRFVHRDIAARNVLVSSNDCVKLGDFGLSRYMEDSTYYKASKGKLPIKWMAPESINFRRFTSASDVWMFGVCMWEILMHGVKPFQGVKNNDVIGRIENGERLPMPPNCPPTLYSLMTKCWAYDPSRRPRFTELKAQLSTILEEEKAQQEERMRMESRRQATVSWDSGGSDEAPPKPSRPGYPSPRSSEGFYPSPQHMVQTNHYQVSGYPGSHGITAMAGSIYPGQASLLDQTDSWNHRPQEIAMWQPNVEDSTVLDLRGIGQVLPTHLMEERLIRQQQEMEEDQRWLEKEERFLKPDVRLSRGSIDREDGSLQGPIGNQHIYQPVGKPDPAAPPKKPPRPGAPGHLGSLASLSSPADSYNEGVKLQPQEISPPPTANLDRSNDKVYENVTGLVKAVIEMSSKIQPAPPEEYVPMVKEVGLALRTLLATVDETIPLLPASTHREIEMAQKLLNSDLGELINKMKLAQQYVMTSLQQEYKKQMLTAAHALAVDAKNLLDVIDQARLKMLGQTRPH
Sequence of eIF-2-alpha kinase GCN2 (Homo sapiens) (Q9P2K8 whole entry): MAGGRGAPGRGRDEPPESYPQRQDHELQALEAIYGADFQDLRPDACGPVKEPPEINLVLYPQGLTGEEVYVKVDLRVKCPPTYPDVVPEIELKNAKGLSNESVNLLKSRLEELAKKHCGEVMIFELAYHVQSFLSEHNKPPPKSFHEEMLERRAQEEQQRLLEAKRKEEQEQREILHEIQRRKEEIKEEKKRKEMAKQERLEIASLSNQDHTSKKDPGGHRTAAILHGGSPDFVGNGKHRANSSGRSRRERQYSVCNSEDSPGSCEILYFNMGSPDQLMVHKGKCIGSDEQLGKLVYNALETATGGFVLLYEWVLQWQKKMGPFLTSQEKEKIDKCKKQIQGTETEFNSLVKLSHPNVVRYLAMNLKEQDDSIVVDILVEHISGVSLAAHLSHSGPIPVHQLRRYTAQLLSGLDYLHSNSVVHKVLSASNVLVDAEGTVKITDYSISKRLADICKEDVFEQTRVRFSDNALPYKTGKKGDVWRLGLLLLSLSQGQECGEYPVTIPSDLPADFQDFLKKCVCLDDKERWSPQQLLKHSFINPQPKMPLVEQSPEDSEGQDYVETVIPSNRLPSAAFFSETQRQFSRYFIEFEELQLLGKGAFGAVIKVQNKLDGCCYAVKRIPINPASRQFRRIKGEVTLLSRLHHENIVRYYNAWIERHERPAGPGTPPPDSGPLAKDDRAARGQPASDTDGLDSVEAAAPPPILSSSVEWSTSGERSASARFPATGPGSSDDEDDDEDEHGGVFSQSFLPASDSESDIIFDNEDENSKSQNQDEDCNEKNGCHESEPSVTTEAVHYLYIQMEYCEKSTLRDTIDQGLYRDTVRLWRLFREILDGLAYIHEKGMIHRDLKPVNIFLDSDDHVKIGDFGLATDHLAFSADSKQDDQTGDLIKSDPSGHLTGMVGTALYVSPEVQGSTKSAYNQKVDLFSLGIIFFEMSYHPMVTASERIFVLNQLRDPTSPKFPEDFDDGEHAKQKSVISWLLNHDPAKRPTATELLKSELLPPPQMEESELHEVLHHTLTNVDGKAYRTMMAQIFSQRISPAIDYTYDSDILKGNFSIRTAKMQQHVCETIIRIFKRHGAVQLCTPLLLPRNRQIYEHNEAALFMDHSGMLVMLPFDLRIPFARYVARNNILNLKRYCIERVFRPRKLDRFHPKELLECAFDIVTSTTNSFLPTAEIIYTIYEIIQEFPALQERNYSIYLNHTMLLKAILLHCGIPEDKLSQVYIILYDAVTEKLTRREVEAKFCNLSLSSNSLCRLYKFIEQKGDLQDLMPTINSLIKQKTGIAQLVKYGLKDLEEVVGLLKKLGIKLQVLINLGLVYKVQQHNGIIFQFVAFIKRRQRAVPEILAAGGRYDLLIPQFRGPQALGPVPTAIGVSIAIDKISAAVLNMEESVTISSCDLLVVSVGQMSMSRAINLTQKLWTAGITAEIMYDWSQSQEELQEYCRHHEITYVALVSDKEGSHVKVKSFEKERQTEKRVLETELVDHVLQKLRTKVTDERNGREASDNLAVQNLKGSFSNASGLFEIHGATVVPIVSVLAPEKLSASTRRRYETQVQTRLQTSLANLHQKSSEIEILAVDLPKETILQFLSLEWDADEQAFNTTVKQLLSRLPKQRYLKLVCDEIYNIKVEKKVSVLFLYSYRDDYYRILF
Sequence of Homeodomain-interacting protein kinase 1 (Q86Z02 whole entry, looked up): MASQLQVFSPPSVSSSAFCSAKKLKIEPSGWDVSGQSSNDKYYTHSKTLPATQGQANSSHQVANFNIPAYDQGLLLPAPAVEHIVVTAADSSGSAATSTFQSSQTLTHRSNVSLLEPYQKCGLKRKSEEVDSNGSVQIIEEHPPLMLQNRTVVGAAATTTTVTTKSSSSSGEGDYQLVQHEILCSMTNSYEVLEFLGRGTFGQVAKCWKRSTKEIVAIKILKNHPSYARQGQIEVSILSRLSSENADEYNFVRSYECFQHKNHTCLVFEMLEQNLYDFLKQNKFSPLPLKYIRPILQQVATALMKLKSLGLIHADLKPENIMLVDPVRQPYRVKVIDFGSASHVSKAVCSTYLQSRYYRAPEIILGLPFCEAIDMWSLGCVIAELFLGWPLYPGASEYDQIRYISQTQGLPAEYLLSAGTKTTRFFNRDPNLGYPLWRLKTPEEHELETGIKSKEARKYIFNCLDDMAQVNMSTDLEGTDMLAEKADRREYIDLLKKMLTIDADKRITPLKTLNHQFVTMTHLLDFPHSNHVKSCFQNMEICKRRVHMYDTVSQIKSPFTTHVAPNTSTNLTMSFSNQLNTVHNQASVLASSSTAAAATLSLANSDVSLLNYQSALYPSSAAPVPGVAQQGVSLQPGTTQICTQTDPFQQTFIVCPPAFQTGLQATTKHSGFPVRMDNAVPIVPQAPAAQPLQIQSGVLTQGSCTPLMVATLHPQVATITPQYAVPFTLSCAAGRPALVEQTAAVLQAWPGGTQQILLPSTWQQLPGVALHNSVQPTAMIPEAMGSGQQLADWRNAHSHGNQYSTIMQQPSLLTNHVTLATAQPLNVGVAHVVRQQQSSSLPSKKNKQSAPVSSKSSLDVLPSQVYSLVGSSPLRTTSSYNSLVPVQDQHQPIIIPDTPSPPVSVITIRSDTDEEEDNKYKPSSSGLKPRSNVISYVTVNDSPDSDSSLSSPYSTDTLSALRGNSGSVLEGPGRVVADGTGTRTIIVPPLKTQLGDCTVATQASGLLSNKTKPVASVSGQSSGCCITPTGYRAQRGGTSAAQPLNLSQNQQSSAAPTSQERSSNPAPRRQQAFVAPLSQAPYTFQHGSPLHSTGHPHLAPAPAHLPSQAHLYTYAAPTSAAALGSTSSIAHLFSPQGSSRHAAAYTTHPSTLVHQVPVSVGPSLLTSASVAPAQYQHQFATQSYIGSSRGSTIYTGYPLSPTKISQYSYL
Sequence of Myosin light chain kinase 2, skeletal/cardiac muscle (Homo sapiens) (Q9H1R3 whole entry): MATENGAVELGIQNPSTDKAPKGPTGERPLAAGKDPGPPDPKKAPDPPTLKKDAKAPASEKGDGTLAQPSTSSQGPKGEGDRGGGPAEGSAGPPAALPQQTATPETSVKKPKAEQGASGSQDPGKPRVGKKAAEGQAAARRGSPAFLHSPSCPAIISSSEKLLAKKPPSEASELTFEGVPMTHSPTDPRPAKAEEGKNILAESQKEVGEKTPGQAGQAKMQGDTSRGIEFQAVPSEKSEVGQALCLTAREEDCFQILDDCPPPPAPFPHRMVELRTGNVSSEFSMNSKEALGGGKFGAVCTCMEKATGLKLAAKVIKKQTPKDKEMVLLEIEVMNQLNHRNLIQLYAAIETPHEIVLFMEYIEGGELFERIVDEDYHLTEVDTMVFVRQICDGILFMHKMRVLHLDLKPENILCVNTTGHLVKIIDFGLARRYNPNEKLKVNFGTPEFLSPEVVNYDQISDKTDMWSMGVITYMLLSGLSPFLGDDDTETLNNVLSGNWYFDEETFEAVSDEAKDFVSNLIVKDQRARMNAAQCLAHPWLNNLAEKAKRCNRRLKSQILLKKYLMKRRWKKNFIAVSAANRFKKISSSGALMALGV
Sequence of Cyclin-dependent kinase 5 (Q00535 whole entry, looked up): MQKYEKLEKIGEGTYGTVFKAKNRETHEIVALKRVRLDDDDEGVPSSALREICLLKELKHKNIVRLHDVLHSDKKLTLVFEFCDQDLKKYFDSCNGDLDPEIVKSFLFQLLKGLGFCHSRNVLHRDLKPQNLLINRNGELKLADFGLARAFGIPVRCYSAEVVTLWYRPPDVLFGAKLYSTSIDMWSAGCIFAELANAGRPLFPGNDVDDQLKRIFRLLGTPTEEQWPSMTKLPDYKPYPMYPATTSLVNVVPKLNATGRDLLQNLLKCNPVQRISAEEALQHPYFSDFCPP

Cn1cc(-n2cnc3c(NCc4nc5cc(Cl)c(Cl)cc5[nH]4)nc(N4CCOCC4)nc32)cn1
% of inhibition [1]: -23% | % of control [2]: 12.7%

CN(C)CCCOc1ccc(-c2cc(NCCCn3cccn3)nc(S(C)(=O)=O)n2)cc1
dTM [3]: < 2 K

CNC(=O)Nc1ccc(-c2nc(N3CC4CCC(C3)O4)c3cnn(C4CCC5(CC4)OCCO5)c3n2)cc1
% of inhibition [4]: 1%

CCN(CC)CCCCNc1ncc2cc(-c3cc(OC)cc(OC)c3)c(NC(=O)NC(C)(C)C)nc2n1
% of control [5]: 100%

CC[C@@H]1[C@H](F)C(=O)N[C@@H]1COc1nccc2cc(C(N)=O)c(OC)cc12 [ZIMLOVISERTIB]
% of inhibition (Focal adhesion kinase 1; at 0.01 µM): 25.4% | % of inhibition (Focal adhesion kinase 1; at 0.04 µM): -3.4% | % of inhibition (Focal adhesion kinase 1; at 0.2 µM): -1.1% | % of inhibition (Focal adhesion kinase 1; at 1 µM): -16.1% | % of inhibition (Focal adhesion kinase 1; at 5 µM): 15.5% | % of inhibition [6]: 11% | % of inhibition [7]: 16.3%

COCC(=O)NC/C=C/c1ccc2ncnc(Nc3ccc(Oc4ccc(C)nc4)c(C)c3)c2c1 [CP-724714]
% of control [8]: 88%

COc1cc(Nc2nc(C)cc(-c3cnn4nc(OC)ccc34)n2)cc(C(F)(F)F)c1
% of control [9]: 63%

Cc1cnc(Nc2ccc(F)cc2Cl)nc1-c1c[nH]c(C(=O)N[C@H](CO)c2cccc(Cl)c2)c1
% of inhibition [10]: 24%

C=CC(=O)Nc1cc(-n2c(=O)ccc3cnc4ccc(-c5ccc(NS(C)(=O)=O)cc5)cc4c32)ccc1C
% of control ([11]; at 1 µM): 100% | % of control ([11]; at 10 µM): 56% | % of control ([12]; at 1 µM): 100% | % of control ([12]; at 10 µM): 100% | % of control ([13]; at 1 µM): 93% | % of control ([13]; at 10 µM): 100%

Nc1cnc(N2CCc3cc(S(=O)(=O)Nc4c(F)cc(Cl)cc4F)cc(N4CCCC4=O)c32)nc1 [TP-020n]
% of control [14]: 100% | % of control [15]: 93% | % of control [16]: 100%

C=CC(=O)Nc1ccc(C(=O)Nc2[nH]nc3c2CN(C(=O)N[C@H](CN(C)C)c2ccccc2)C3(C)C)cc1
% of engagement [17]: 0.8% | % of engagement ([18]; Selectivity number of off-targets 0.0, Selectivity number of targets 233.0, Source Knowledge https://www.sciencedirect.com/science/article/pii/S2451945619300674?via%3Dihub): -7.2% | % of engagement [18]: -16.6%

COc1cc(N(C)c2ccnc3ccc(C(F)(F)F)cc23)cc(OC)c1OC
% binding [19]: 94%

N#Cc1cccc(-c2c[nH]c3ncnc(N4CCOCC4)c23)c1
% of inhibition [20]: -1%
